Entries after “also recorded” stand apart in the source; their conditions may differ.
How the values were obtained:
[1] = tested on: mdx mice; experiment: Hematoxylin and eosin histology of tibialis anterior muscle of mdx mice; format: in vivo, mouse; conditions: exercised mdx mice, 1 mg/kg i.p. 3 times per week for 3 months, vs vehicle
Description: FIG. 4. Andrographolide reduced skeletal muscle damage in mdx mice. To augment the extent of muscle fibrosis, 3 months old mdx mice were subjected to an exercise protocol for 3 months. Along this period one group was treated with 1 mg/kg andrographolide or vehicle (i.p. injections 3 time per week, 6 animal per group). […] B) Evans blue dye uptake in tibialis anterior muscle fibers from wild-type (WT), Vehicle-treated mdx and andrographolide-treated mdx mice. Nuclei were labeled with Hoechst. Mice were injected i.p. with 1% Evans blue dye 24 hours before muscle fixation. Bar corresponds to 200 μm. […] Values are expressed as mean±SD of three independent experiments, using eight mice for each experimental condition. (*, P<0.05 relative to WT mice; #, P<0.05 relative to Vehicle-treated mdx mice).
(§1) Control or mdx (12 weeks old) male mice of C57BL/10 ScSn strain were studied. The animals were kept at room temperature with a […] night-day cycle and fed with pellets and water ad libitum. Experimental exercise was performed for running the mice in a treadmill for three times per week, 30 minutes each time at 12 m/min during 3 or 4 months (De Luca et al., 2005; De Luca et al., 2003). […]
Architecture and histology were detected by hematoxylin-eosin (H&E) stain in transverse sections of muscle (Morales et al., 2011).

[2] = tested on: mdx mice; experiment: Contractile properties (isometric force) of isolated tibialis anterior muscle of mdx mice; format: in vivo, mouse; conditions: isolated tibialis anterior of treated mdx mice, vs vehicle-treated mdx
Description: FIG. 6. Andrographolide increased skeletal muscle strength and exercise performance in mdx mice. 3 months old Wild Type (WT) and mdx mice were subjected to an exercise protocol for 3 months to augment the extent of muscle fibrosis. Along this period one group was treated with 1 mg/kg andrographolide or vehicle (i.p. injections 3 time per week, 6 animal per group). A) tibialis anterior muscles from wild-type (WT), Vehicle-treated mdx and andrographolide-treated mdx mice were isolated to evaluate isometric specific force (mN/mm2) at different stimulation frequencies (pulses per second, pps). B) Bar graph showing tetanic specific force. Values are represented as percentage of specific isometric force generated by Wild type muscle (*, P<0.05 relative to WT mice; #, P<0.05 relative to Vehicle-treated mdx mice). C) Bar graph showing twitch force (*, P<0.05 relative to WT mice; #, P<0.05 relative to Vehicle-treated mdx mice). D) Mice were subjected to an exercise challenge into the treadmill at 15 meters/min for 5 minutes and the number of stebacks was counted (*, P<0.05 relative to WT mice; #, P<0.05 relative to Vehicle-treated mdx mice).
as §1
The isometric force of isolated muscles were measured as described previously (Cabello-Verrugio et al., 2012). Briefly, optimum muscle length (Lo) and stimulation voltage were determined from micromanipulation of muscle length to produce maximum isometric twitch force. Maximum isometric tetanic force (Po) was determined from the plateau of the frequency-force relationship after successive stimulations at 1 to 200 Hz for 450 ms, with 2-minute rests between stimuli. […]

[3] = tested on: mdx mice; experiment: Survival and proliferation of grafted EGFP satellite cells in mdx mice, EGFP transgene real time qPCR; format: in vivo, mouse
Description: Alternatively, it might be possibly that the host muscles have a diminished density of satellite cells, thus, the grafted cells would have no competition for the regenerating muscle fibers or instead the transplanted cells presents a better proliferation performance in the andrographolide treated mice muscles. The first possibility seems to be plausible considering the fibroblast migration data (FIG. 5), while the second hypothesis was excluded since no changes in the number of satellite cells present on isolated EDL myofibers obtained from the same transplanted mice in FIG. 5A were observed, with a mean of 12.5 satellite cells per EDL myofiber, as shown in the FIG. 5B. To test the last possibility, whether grafted cells have improved proliferation rate or survival, we purified satellite cells from the EGFP-transgenic C57BL/6 mice that constitutively expressed the EGFP transgene under the control of the chicken b-actin gene (C57BL/6-Tg(ACTbEGFP)10sba; Act-EGFP). […] The EGFP transgene present in the grafted muscles was detected by real time qPCR in parallel with the mouse b-actin as a housekeeping gene. Since every grafted cell carries only one copy of the EGFP gene (the homozygous EGFP mice die within 2 weeks after birth) the EGFP gene detection constitutes a specific, rapid, and objective quantitation of the grafted cells.

[4] = tested on: MES-13 cells; conditions: cited from earlier work

## C=C1CC[C@@H]2[C@](C)(CO)[C@H](O)CC[C@@]2(C)[C@@H]1C/C=C1/C(=O)OC[C@H]1O [andrographolide]
[1]
  damaged areas in muscle, hematoxylin and eosin staining: striking smaller muscle damaged areas; also recorded: prevented the increase of damaged areas
[2]; frequencies between 50 and 100 Hz
  generation of isometric force: significant increase
[2]
  tetanic force: significant increase
  twitch force: significant increase
[3]; 15 days post transplantation, EGFP transgene qPCR
  percentage of grafted cells compared to the fibrotic untreated mice: 3 times
[3]; EGFP satellite cells grafted in mdx mice, in both cases (treated and untreated)
  transplanted cells that die during the first 2 days: 60%
[4]; MES-13 cells
  phenotypes indicating diabetic nephropathy in MES-13 cells: reduces
[4]
  antioxidant ability in a cellular environment: do not have antioxidant ability
[4]; high glucose cultured MES-13 cells
  intracellular oxidative states: reduced

Source: US20140271573A1, “PHARMACO-CELLULAR THERAPEUTIC METHOD FOR THE TREATMENT OF MUSCULAR DYSTROPHIES” (PONTIFICIA UNIVERSIDAD CATÓLICA DE CHILE, priority 2013, published 2014)
